Laboratory results taken from PubChem BioAssay AID1996.
In brackets after ≈: the same amount, converted by molar mass.

Details: buffer; pH 7.4; 200.0 µM

Compound	solubility kinetic [µg/mL]
CSc1cccc(NC(=O)COC(=O)C2(c3ccccc3)CC2)c1	10.7 (≈ 31.3 µM)
CC1(C)CC(NC(=O)C(=O)NCCc2ccccc2)CC(C)(C)N1	> 49.7
Cc1ccc(NC(=O)c2ccsc2)cc1NS(C)(=O)=O	> 46.6
O=C(OCCN1C(=O)c2ccccc2C1=O)Oc1ccccc1	37.1 (≈ 119 µM)
Cc1ccccc1CC(=O)N1CCCC1	29.7 (≈ 146 µM)
CN1CCC2(CC1)C(C#N)=C(N)NC(S)=C2C#N	> 39.2
COc1ccccc1CNC(=O)COC(=O)/C=C/c1ccc2ccccc2n1	9.8 (≈ 26 µM)
O=C(c1cccs1)N1CCN(c2cccc(Cl)c2)CC1	26.3 (≈ 85.7 µM)
Nc1nc(OCc2ccccc2)c2[nH]cnc2n1	35.9 (≈ 149 µM)
Cc1c(-c2ccccc2)[n+](=O)c2c(n1[O-])CCCC2	> 38.4
Cc1cccc(C)c1N(CC(=O)N1CCCC1)S(C)(=O)=O	35.2 (≈ 113 µM)
CN1C(=O)C(=Cc2cn(CC#N)c3ccccc23)C(=O)N(C)C1=O	8.1 (≈ 25.1 µM)
CCc1ccc(NC(=O)C(C)OC(=O)/C=C/c2ccc(O)c(OC)c2)cc1 (centres undefined)	4.1 (≈ 11.1 µM)
CCc1ccc(OC(=O)c2cncc(Br)c2)cc1	4 (≈ 13.1 µM)
Cc1ccc(NC(=O)Nc2ccc3c(c2)CCC3)cc1	< 0.3
Cc1ccc(NC(=O)/C=C/C(=O)O)c(NC(=O)c2ccccc2)c1	> 48.7
O=C(O)C(=O)O.Oc1ccccc1CNCCCN1CCOCC1	41.5
COc1ccc(CN(C)C2CCN(C)CC2)cc1OC	38.3 (≈ 138 µM)
CCc1ccc(/C=C2\SC(N3CCOCC3)=NC2=O)cc1	24.9 (≈ 82.3 µM)
O=C(CN1CCN(c2ccc(F)cc2)CC1)Nc1nccs1	24.5 (≈ 76.5 µM)

Compound	solubility kinetic [µg/mL]
NC(=NCCc1ccccc1)NS(=O)(=O)c1ccccc1F	> 48.2
Cc1ccc(NC(=O)Nc2cnccn2)cc1	14.4 (≈ 63.1 µM)
CCOCCCNc1ncnc2c1nc1n2CCCC1	> 41.3
COc1ccc(C(=O)CCC(=O)Nc2cccnc2)cc1	> 42.6
Cc1cccc(C)c1NC(=O)CNC(=O)COC(=O)c1ccc(Cl)s1	23.9 (≈ 62.8 µM)
CC(C)N(C)S(=O)(=O)c1ccc(Cl)c(C(=O)O)c1	> 43.8
Cc1c(O)ccc2c(CN3CCOCC3)cc(=O)oc12	> 41.3
O=C(/C=C/c1ccc(Cl)c(Cl)c1)NCCCn1ccnc1	38.8 (≈ 120 µM)
CC(C(=O)NC1CCCC1)N1C(=O)c2cccc3cccc1c23 (centres undefined)	> 46.3
COc1ccc(OC)c(C(C)NC(=O)C23CC4CC(CC(C4)C2)C3)c1 (centres undefined)	0.8 (≈ 2.33 µM)
Cc1cccc(NC(=S)NC(=O)c2ccco2)c1C	36.7 (≈ 134 µM)
COC(=O)N1CCN(CCc2ccccc2)CC1	> 37.2
CCC(C)c1ccc(NC(=O)c2[nH]c(C)c(C(C)=O)c2C)cc1 (centres undefined)	0.5 (≈ 1.6 µM)
N#Cc1cc(N)ccc1-n1cccc1	27.2 (≈ 148 µM)
CC(C)CC(=O)Nc1ccc(C(=O)CN2CCC(C)CC2)cc1	39.4 (≈ 125 µM)
FC(F)(F)c1cccc(OCc2noc(-c3ccsc3)n2)c1	< 0.3
COC(=O)C(Cc1cccc(C)n1)(c1ccccc1)c1ccccc1	14.2 (≈ 42.8 µM)
COc1ccc(-n2c(O)c(C=NCCN(C)C)c(=O)[nH]c2=O)cc1	> 49.9
CCN(C(=O)COC(=O)c1ccc(SC)cc1OC)C1CCS(=O)(=O)C1 (centres undefined)	> 60.2
O=C(CSc1ccccc1)NC1CCCCCCC1	40.6 (≈ 146 µM)

Compound	solubility kinetic [µg/mL]
OCCC1CN(Cc2nc3ccccc3[nH]2)CCN1C1CCCC1 (centres undefined)	> 49.3
COc1ccc(CC(C)Nc2ccccc2F)cc1 (centres undefined)	< 0.6
CCc1cn([C@H]2C[C@H](O)[C@@H](CO)O2)c(=O)[nH]c1=O	> 38.4
Nc1nc2sc3c(c2cc1C(=O)NCC(=O)O)CCCC3	> 45.8
COc1ccc(C(=O)OCC(=O)Nc2c(C)n(C)n(-c3ccccc3)c2=O)cc1	> 59.3
COc1cccc(CNc2ccc(S(=O)(=O)N3CCCC3)cn2)c1	46 (≈ 132 µM)
C/C(CC(=O)Nc1cccc(F)c1)=N\NC(=O)c1ccncc1	> 47.1
Cc1c(C(=O)NC2CCCc3ccccc32)cccc1[N+](=O)[O-] (centres undefined)	6.1 (≈ 19.7 µM)
Cc1cc(OCC(=O)N(C(C)C)C(C)C)ccc1Cl	28.8 (≈ 101 µM)
CN(C)CCNC(=O)Nc1ccc([N+](=O)[O-])cc1	> 37.8
CCOc1ccccc1NC(=O)c1cccc2ccccc12	7.7 (≈ 26.4 µM)
Nc1ccc(-c2nc3cc(N)ccc3o2)cc1	> 33.8
CCOC(=O)/C(C#N)=C/c1c(Oc2cccc(C)c2)nc2ccccn2c1=O	0.7 (≈ 1.86 µM)
O=C(O)c1cccc2c(/C=N/Nc3ccccn3)c[nH]c12	> 42
CCn1c(/C=C/c2ccccc2Cl)nc2ccccc2c1=O	1.7 (≈ 5.47 µM)
Cc1cc(C)c(C)c(OCCNCc2ccccc2)c1.O=C(O)C(=O)O	> 53.9
COc1ccc(CC(=O)OCC(=O)Nc2ccc3c(c2)OCO3)cc1	> 51.5
Cn1c(-c2cccc(Br)c2)cnc1NCc1ccccc1O	6.3 (≈ 17.6 µM)
O=S(=O)(c1ccc(Br)cc1Cl)N1CCCN(c2ccc(C(F)(F)F)cn2)CC1	3 (≈ 6.02 µM)
